Experimental data reported in ChEMBL document CHEMBL1201862, “PubChem BioAssay data set” (2004).
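In this assay, cells in 96-well plates receive the compound at five concentrations for 48 hours. Endpoints are linearly interpolated between the surrounding concentrations. Here, GI50 denotes the concentration required for 50% inhibition of growth.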 Calls of active or inactive are those of the source. Rule as the data show it: active = GI50 up to about 1.1 µM and inactive = higher.

Key:
Experiment in all cases: NCI tumour cell line growth inhibition, 48 h
OVCAR-4 = system: OVCAR-4
MDA-MB-435 = system: MDA-MB-435
786-0 = system: 786-0
RXF 393 = system: RXF 393
SK-MEL-28 = system: SK-MEL-28
PC-3 = system: PC-3
U-251 = system: U-251
SF-268 = system: SF-268
BT-549 = system: BT-549
EKVX = system: EKVX
SK-MEL-2 = system: SK-MEL-2
ACHN = system: ACHN
DU-145 = system: DU-145
SW-620 = system: SW-620
CCRF-CEM = system: CCRF-CEM
A549 = system: A549
M14 = system: M14
SK-OV-3 = system: SK-OV-3

SMILES | GI50 (OVCAR-4) | GI50 (MDA-MB-435) | GI50 (786-0) | GI50 (RXF 393) | GI50 (SK-MEL-28) | GI50 (PC-3) | GI50 (U-251) | GI50 (SF-268) | GI50 (BT-549) | GI50 (EKVX) | GI50 (SK-MEL-2) | GI50 (ACHN) | GI50 (DU-145) | GI50 (SW-620) | GI50 (CCRF-CEM) | GI50 (A549) | GI50 (M14) | GI50 (SK-OV-3)
OC1C2CN3CCN(C2)CC1(c1ccccc1)C3 (centres undefined) | > 100 µM (inactive) | > 100 µM (inactive) | > 100 µM (inactive) | > 100 µM (inactive) | > 100 µM (inactive) | > 100 µM (inactive) | > 100 µM (inactive) | > 100 µM (inactive) | > 100 µM (inactive) | > 100 µM (inactive) | > 100 µM (inactive) | > 100 µM (inactive) | > 100 µM (inactive) | > 100 µM (inactive) | – | – | – | –
CCCNC(=O)NNC(=O)c1c[nH]c2nc(C)ccc2c1=O | > 100 µM (inactive) | > 100 µM (inactive) | > 100 µM (inactive) | > 100 µM (inactive) | > 100 µM (inactive) | > 100 µM (inactive) | > 100 µM (inactive) | > 100 µM (inactive) | > 100 µM (inactive) | > 100 µM (inactive) | > 100 µM (inactive) | > 100 µM (inactive) | > 100 µM (inactive) | > 100 µM (inactive) | > 100 µM (inactive) | > 100 µM (inactive) | > 100 µM (inactive) | –
CC(C)(C)O/N=C/c1cc(NC(=S)c2ccsc2)ccc1Cl | 14.6 µM (inactive) | 14.6 µM (inactive) | 16.2 µM (inactive) | 14.1 µM (inactive) | 16.7 µM (inactive) | 13 µM (inactive) | 15.7 µM (inactive) | 16 µM (inactive) | 13.9 µM (inactive) | 11.9 µM (inactive) | 16 µM (inactive) | – | 5.37 µM (inactive) | 17.2 µM (inactive) | 10.7 µM (inactive) | 17.5 µM (inactive) | 16.7 µM (inactive) | 18.7 µM (inactive)
COc1cc(OC)cc(Oc2nc3ccc(C(F)(F)F)cc3nc2-c2ccccc2)c1 | > 100 µM (inactive) | > 100 µM (inactive) | > 100 µM (inactive) | > 100 µM (inactive) | > 100 µM (inactive) | > 100 µM (inactive) | > 100 µM (inactive) | > 100 µM (inactive) | > 100 µM (inactive) | > 100 µM (inactive) | – | > 100 µM (inactive) | > 100 µM (inactive) | > 100 µM (inactive) | > 100 µM (inactive) | > 100 µM (inactive) | – | > 100 µM (inactive)
C/C=C(/C)C(=O)OC1CC(C)[C@H]2CC(=O)C(C)=C2CC1C(C)(C)OC(C)=O (some centres undefined) | 22.2 µM (inactive) | 28 µM (inactive) | 43.8 µM (inactive) | 22.5 µM (inactive) | 31 µM (inactive) | 31.3 µM (inactive) | 38.1 µM (inactive) | 58.2 µM (inactive) | 31 µM (inactive) | 39.1 µM (inactive) | 3.95 µM (inactive) | 35.6 µM (inactive) | 81.1 µM (inactive) | 43.7 µM (inactive) | 25.6 µM (inactive) | 30.3 µM (inactive) | 29.2 µM (inactive) | –
OC1(C(O)(c2ccc(-c3ccccc3)cc2)c2ccc(-c3ccccc3)cc2)CCCCC1 | > 100 µM (inactive) | > 100 µM (inactive) | > 100 µM (inactive) | > 100 µM (inactive) | > 100 µM (inactive) | > 100 µM (inactive) | > 100 µM (inactive) | > 100 µM (inactive) | > 100 µM (inactive) | > 100 µM (inactive) | > 100 µM (inactive) | > 100 µM (inactive) | > 100 µM (inactive) | > 100 µM (inactive) | – | 81.5 µM (inactive) | > 100 µM (inactive) | > 100 µM (inactive)
CN(C)c1ccc(/C=C2\Oc3ccccc3C2=O)cc1 | > 100 µM (inactive) | 56.8 µM (inactive) | > 100 µM (inactive) | > 100 µM (inactive) | > 100 µM (inactive) | > 100 µM (inactive) | > 100 µM (inactive) | > 100 µM (inactive) | > 100 µM (inactive) | > 100 µM (inactive) | – | > 100 µM (inactive) | > 100 µM (inactive) | > 100 µM (inactive) | > 100 µM (inactive) | > 100 µM (inactive) | > 100 µM (inactive) | > 100 µM (inactive)
Sc1ncnc2c1ncn2Cc1ccco1 | > 100 µM (inactive) | > 100 µM (inactive) | > 100 µM (inactive) | > 100 µM (inactive) | > 100 µM (inactive) | > 100 µM (inactive) | > 100 µM (inactive) | > 100 µM (inactive) | > 100 µM (inactive) | > 100 µM (inactive) | > 100 µM (inactive) | > 100 µM (inactive) | > 100 µM (inactive) | > 100 µM (inactive) | – | > 100 µM (inactive) | > 100 µM (inactive) | > 100 µM (inactive)
COc1c(CCl)cc(-c2cc(=O)c3ccccc3s2)cc1CCl | 3.58 µM (inactive) | > 100 µM (inactive) | 0.65 µM (active) | 1.63 µM (inactive) | > 94.4 µM (inactive) | > 100 µM (inactive) | 18.8 µM (inactive) | 9.23 µM (inactive) | 36.6 µM (inactive) | > 100 µM (inactive) | 10.1 µM (inactive) | 45.2 µM (inactive) | > 100 µM (inactive) | – | 2.24 µM (inactive) | 37.8 µM (inactive) | > 100 µM (inactive) | 27.3 µM (inactive)
CC(=O)OC1C(O)COC(O[C@H]2CC[C@]34C[C@]35CC[C@]3(C)C([C@@]6(C)CC[C@@H](C(C)(C)O)O6)[C@@H](O)C[C@@]3(C)C5C[C@H](OC3OCC(O)C(O)C3O)[C@H]4C2(C)C)C1OC1OCC(O)C(O)C1O (some centres undefined) | > 100 µM (inactive) | > 100 µM (inactive) | > 100 µM (inactive) | > 86.3 µM (inactive) | > 100 µM (inactive) | > 100 µM (inactive) | > 100 µM (inactive) | > 100 µM (inactive) | > 100 µM (inactive) | > 100 µM (inactive) | > 100 µM (inactive) | > 100 µM (inactive) | > 100 µM (inactive) | > 100 µM (inactive) | – | > 100 µM (inactive) | > 100 µM (inactive) | > 100 µM (inactive)
CC(NO)/C(=N/O)c1ccco1 (centres undefined) | > 10 µM (inactive) | > 10 µM (inactive) | > 10 µM (inactive) | > 10 µM (inactive) | – | > 10 µM (inactive) | > 10 µM (inactive) | > 10 µM (inactive) | > 10 µM (inactive) | > 10 µM (inactive) | > 10 µM (inactive) | > 10 µM (inactive) | > 10 µM (inactive) | > 10 µM (inactive) | > 10 µM (inactive) | > 10 µM (inactive) | > 10 µM (inactive) | –
c1ccc(SC(Sc2ccccc2)c2ccc3c(c2)OCO3)cc1 | > 100 µM (inactive) | > 100 µM (inactive) | > 100 µM (inactive) | > 100 µM (inactive) | > 100 µM (inactive) | > 100 µM (inactive) | > 100 µM (inactive) | 93.1 µM (inactive) | > 100 µM (inactive) | 37.2 µM (inactive) | > 100 µM (inactive) | > 100 µM (inactive) | > 100 µM (inactive) | > 100 µM (inactive) | > 100 µM (inactive) | > 100 µM (inactive) | > 100 µM (inactive) | –
